Results published in US20200245660A1, “AGROCHEMICAL-FREE SIRAITIA GROSVENORII EXTRACT, AND METHOD FOR PREPARING SAME” (priority 2015, published 2020).
Like-named read-outs stand apart in the source and are kept apart here.

Assays:
[1] = cited from earlier work
physchem = format: physicochemical; details: LogPow
Procedure: These agrochemicals are each a compound having a distribution coefficient (LogPow) of 1.71 or more. Herein, the distribution coefficient of a target compound specifically means the 1-octanol/water distribution coefficient (LogPowow) thereof. When the target compound is added into two solvent phases (of 20 to 25° C.) of 1-octanol and water to make the two phases into an equilibrium state, the distribution coefficient more specifically means the concentration ratio of the compound between the two phases (1-octanol/water). The distribution coefficient may be gained by a flask method or an HPLC method. The distribution coefficient is a physicochemical index representing the hydrophobicity (solubility into lipid) of the compound. As the compound is higher in distribution coefficient, the compound is higher in hydrophobicity. It is known that as the compound is higher in hydrophobicity, the compound is higher in storability in a living body and is also stronger in toxicity. Thus, it can be stated that as the compound is higher in distribution coefficient, the compound is an agrochemical stronger in toxicity.
For reference, out of the six, about dimethomorph, tebuconazole, difenoconazole, metalaxyl, and metalaxyl M, the respective LogPow values are shown below. […]

SMILES: COCC(=O)N(c1c(C)cccc1C)C(C)C(=O)OC (centres unmarked) [Metalaxyl, metalaxyl]
- LogPow ([1]; 25 °C, Flask method): 1.75

SMILES: CC(C)(C)C(O)C(Oc1ccc(Cl)cc1)n1cncn1 (centres unmarked) [Triadimenol, triadimenol]
- chromatographic logP (physchem): ~2.96

SMILES: CC(C)(C)C(O)(CCc1ccc(Cl)cc1)Cn1cncn1 (centres unmarked) [Tebuconazole, tebuconazole]
- LogPow ([1]; 20 °C, Flask method): 3.7

SMILES: COCC(=O)N(c1c(C)cccc1C)[C@H](C)C(=O)OC [Metalaxyl M, metalaxyl M]
- LogPow ([1]; 25 °C, HPLC method): 1.71

SMILES: CC1COC(Cn2cncn2)(c2ccc(Oc3ccc(Cl)cc3)cc2Cl)O1 (centres unmarked) [Difenoconazole, difenoconazole]
- LogPow ([1]; 25 °C, Flask method): 4.4
